The values below come from patent US12653830B2, “Substituted imidazoquinoxaline compounds and uses thereof” (Impact Therapeutics (Shanghai), Inc, priority 2019, dated 2026).

For assay [1], the system named is human colon cancer cell SW620. As to the kind of experiment: MTT proliferation assay in combination with CPT-11, SW620. The note with it: medium containing 205 nM CPT-11, 5 days, read-out: IC50, inhibition of proliferation of SW620 combined with CPT-11. In kind it is cell-based. The method, boiled down: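 SW620 cells in RPMI 1640 + 10% FBS are seeded overnight, then given compound in fresh medium containing 205 nM CPT-11 (1% DMSO final) for 5 days at 37 °C, 5% CO2. Viability is read by MTT (0.5 mg/mL, 4 h) at 552/690 nm, normalised to background-corrected DMSO wells. IC50 is taken from viability versus log concentration.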

A further assay has as its target T1, ATM kinase (Homo sapiens, UniProt Q13315).
T1 construct: purchased Eurofins 14-933
As to the kind of experiment: In vitro ATM kinase assay (Cisbio HTRF, p53 substrate). Type of assay: biochemical. The conditions noted are these: 30 μM ATP; for inhibition at 0.001 µM: Conc. 1 nM; for inhibition at 0.001 µM / inhibition at 0.0001 µM / inhibition at 0.01 µM: read-out: Inh % (inhibitory effect on ATM kinase activity); for inhibition at 0.0001 µM: Conc. 0.1 nM; for inhibition at 0.01 µM: Conc. 10 nM. Here is the method:
Determination of the Inhibitory Effect In Vitro of the Compound of Example 2 and its Analogues on ATM Using In Vitro ATM Kinase Assay
ATM enzymatic activity was measured using Cisbio's HTRF reagent in a 384-well plate (Greiner, #784075). […] The mixtures were centrifuged at 1000 rpm for 1 minute, and reacted in dark for 30 minutes at room temperature. Then, 5 μL of EDTA termination solution (250 mm) was added to terminate the reaction. After 5 μL of detection mixture (Anti-phospho-p53 (ser15)-K (Cisbio, #61P08KAE, 0.084 ng/μL) and Anti-GST-d2 (Cisbio, #61GSTDLA, 5.00 ng/μL)) was finally added to each well, the mixtures were cultured at room temperature over night, and the fluorescence values at 665 nm and 615 nm were measured on Envision 2104. The final concentration of each reagent of the experiment was as follows: 12.5 mM HEPES (pH8.0), 0.5% glycerol, 0.005% Brij-35, 0.625 mM DTT, 0.0125% BSA, 15 nM p53, 0.25 ng/μL ATM, 30 μM ATP, 2.5 mM Mg(AcO)2, 2.5 mM MnCl2, 62.5 mM EDTA, 0.021 ng/μL Anti-phospho-p53, 1.25 ng/μL Anti-GST-d2.
Relative fluorescence ratio was calculated: Ratio665 nm/615 nm−Ratiobackground, and inhibition rate %=(1−(relative fluorescence ratio of test compound well−relative fluorescence ratio of positive control well)/(relative fluorescence ratio of negative control well−relative fluorescence ratio of positive control well))×100 was calculated. Data were analyzed using GraphPad Prism6.0 and fitted using the curve equation: Y=Bottom+(Top−Bottom)/(1+10^((Log IC50−X)*HillSlope)), and IC50 values were calculated.
(TR-FRET usually uses a lanthanide donor and a delayed reading to cut background.)

Assay [2] deals with human breast cancer cell MDA-MB-468. As to the kind of experiment: MTT proliferation assay, MDA-MB-468. The note with it: Homo sapiens, MDA-MB-468, 168 h, 7 days, single agent, read-out: IC50, inhibition of proliferation of MDA-MB-468. Type of assay: cell-based. Put shortly:
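Cells seeded overnight, then treated 7 days at 37 °C, 5% CO2 in RPMI 1640 + 5% FBS with 1% final DMSO, medium changed on day 4. MTT (0.5 mg/mL) for 4 h, DMSO-solubilised, absorbance at 552 and 693 nm; viability relative to DMSO after background subtraction, IC50 from log-concentration curves.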
(Tetrazolium assays rely on reduction of a dye to a coloured formazan, in cell work by metabolically active cells.)

Where two headings read alike, the source gives them in different places.

T1 sequence (Q13315 whole entry): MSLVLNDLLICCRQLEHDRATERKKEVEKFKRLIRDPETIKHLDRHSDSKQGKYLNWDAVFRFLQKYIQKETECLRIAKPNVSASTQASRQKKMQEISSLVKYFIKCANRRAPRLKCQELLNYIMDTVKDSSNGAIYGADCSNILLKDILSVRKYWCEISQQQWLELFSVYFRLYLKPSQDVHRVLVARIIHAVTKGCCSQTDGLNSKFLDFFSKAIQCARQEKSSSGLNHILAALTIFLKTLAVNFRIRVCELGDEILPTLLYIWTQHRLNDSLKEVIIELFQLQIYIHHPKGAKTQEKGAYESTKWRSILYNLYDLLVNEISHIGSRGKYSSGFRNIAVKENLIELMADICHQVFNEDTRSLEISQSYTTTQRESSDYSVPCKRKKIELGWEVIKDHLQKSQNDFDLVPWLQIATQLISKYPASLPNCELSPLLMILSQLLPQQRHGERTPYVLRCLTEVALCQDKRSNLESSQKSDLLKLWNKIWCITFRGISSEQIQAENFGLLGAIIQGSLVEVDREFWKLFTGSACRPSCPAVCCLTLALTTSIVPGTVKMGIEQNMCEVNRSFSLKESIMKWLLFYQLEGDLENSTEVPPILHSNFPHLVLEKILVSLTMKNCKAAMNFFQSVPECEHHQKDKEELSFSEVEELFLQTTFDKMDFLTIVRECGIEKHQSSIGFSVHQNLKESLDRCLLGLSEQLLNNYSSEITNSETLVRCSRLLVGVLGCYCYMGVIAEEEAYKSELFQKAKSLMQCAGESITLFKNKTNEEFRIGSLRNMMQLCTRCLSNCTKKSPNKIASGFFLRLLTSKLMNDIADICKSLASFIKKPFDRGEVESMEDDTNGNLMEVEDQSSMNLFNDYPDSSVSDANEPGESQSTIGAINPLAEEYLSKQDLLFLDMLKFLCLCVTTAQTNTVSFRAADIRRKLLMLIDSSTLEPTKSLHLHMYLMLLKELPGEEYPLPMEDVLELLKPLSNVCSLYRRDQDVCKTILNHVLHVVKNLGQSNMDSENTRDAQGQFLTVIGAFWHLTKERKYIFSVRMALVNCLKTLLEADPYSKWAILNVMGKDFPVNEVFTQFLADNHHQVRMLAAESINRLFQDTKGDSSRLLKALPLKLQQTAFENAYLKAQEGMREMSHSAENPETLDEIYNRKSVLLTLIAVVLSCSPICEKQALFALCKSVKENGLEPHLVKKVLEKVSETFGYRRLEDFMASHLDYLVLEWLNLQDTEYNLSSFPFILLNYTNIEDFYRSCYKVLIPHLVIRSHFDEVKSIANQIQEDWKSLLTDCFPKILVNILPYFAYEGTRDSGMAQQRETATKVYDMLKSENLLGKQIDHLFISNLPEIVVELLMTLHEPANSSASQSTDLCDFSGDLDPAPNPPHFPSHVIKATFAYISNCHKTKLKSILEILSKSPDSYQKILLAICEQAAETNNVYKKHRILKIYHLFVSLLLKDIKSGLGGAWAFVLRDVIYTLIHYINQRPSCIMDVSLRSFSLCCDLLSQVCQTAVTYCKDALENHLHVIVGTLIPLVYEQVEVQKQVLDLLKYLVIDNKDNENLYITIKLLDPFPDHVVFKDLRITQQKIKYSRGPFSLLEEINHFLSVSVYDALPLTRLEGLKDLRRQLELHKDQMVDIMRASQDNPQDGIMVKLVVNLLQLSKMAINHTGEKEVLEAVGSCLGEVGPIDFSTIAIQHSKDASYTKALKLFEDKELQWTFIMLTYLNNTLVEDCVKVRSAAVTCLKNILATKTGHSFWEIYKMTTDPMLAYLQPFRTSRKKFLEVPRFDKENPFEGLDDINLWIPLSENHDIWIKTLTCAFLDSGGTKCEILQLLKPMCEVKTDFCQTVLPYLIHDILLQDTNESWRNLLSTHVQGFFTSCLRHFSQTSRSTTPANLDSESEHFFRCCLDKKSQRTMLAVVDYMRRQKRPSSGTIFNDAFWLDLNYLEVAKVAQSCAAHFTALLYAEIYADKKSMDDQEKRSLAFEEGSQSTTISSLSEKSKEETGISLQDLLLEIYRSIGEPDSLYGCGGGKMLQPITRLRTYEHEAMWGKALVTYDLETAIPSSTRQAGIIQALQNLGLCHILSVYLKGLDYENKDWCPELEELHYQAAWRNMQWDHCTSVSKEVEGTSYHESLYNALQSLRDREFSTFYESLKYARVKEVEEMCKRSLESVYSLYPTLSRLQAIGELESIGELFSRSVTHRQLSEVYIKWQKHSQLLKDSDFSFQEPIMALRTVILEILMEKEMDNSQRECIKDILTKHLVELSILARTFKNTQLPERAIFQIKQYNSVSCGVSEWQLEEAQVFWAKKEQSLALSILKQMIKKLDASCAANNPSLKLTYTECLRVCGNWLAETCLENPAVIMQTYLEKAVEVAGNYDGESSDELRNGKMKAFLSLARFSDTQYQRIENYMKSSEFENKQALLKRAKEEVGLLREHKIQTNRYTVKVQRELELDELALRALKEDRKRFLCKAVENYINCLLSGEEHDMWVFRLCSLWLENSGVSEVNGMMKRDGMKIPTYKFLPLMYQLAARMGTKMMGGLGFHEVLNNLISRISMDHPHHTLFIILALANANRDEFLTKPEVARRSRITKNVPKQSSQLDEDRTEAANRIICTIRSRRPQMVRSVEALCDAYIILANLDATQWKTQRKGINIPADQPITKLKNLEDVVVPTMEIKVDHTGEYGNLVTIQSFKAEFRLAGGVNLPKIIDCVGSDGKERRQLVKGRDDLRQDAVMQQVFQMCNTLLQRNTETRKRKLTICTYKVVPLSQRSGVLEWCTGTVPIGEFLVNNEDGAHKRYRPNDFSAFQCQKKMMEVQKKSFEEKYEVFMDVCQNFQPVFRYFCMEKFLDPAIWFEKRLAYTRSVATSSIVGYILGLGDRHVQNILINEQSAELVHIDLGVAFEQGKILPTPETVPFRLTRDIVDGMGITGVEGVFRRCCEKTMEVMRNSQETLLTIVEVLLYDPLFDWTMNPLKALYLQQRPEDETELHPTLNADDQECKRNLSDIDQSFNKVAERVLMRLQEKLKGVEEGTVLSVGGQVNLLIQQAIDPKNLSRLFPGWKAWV

As for `Cc1nc(N2C[C@@H](C)O[C@@H](C)C2)n2c1cnc1ccc(-c3ccc(OCCCN4CCN(C)CC4)nc3)cc12` [Example 59, (2S,6R)-2,6-dimethyl-4-(3-methyl-8-(6-(3-(4-methylpiperazin-1-yl)propoxy)pyridin-3-yl)imidazo[1,5-a]quinoxalin-1-yl)morpholine], the IC50 in assay [1] (Homo sapiens, SW-620, 120 h) turned out to be 12 nM; on ATM kinase, 0.19 nM; in assay [2], 9.2 nM.
Take `Cc1nc(N2C[C@@H](C)O[C@@H](C)C2)n2c1cnc1ccc(-c3ccc(OCCN(C)C)nc3)cc12` [Example 36, 2-((5-(1-((2S,6R)-2,6-dimethylmorpholino)-3-methylimidazo[1,5-a]quinoxalin-8-yl)pyridin-2-yl)oxy)-N,N-dimethylethan-1-amine]: the IC50 in assay [1] was 72.6 nM; in assay [2], 58.8 nM. Further, the inhibition at 0.001 µM at ATM kinase is 40%.
Regarding `C[C@@H]1CN(c2ncc3cnc4ccc(-c5ccc(OCCCN(C)C)nc5)cc4n23)C[C@H](C)O1` [Example 43, 3-((5-(1-((2S,6R)-2,6-dimethylmorpholino)imidazo[1,5-a]quinoxalin-8-yl)pyridin-2-yl)oxy)-N,N-dimethylpropan-1-amine], the IC50 in assay [1] (Homo sapiens, SW-620, 120 h) stood at 17.9 nM; at ATM kinase it was 0.41 nM; in assay [2], 16.7 nM.
The like results for `CNC1CCN(c2ccc(-c3ccc4ncc5c(C)nc(N6C[C@@H](C)O[C@@H](C)C6)n5c4c3)cn2)CC1` [Example 49, 1-(5-(1-((2S,6R)-2,6-dimethylmorpholino)-3-methylimidazo[1,5-a]quinoxalin-8-yl)pyridin-2-yl)-N-methylpiperidin-4-amine] were, in that order, 7.1 nM, 0.8 nM and 4.5 nM.
The like results for `Cc1nc(N2C[C@@H](C)O[C@@H](C)C2)n2c1cnc1ccc(-c3ccc(N4CCC(N(C)C)CC4)c(Cl)c3)cc12` [Example 40, 1-(2-chloro-4-(1-((2S,6R)-2,6-dimethylmorpholino)-3-methylimidazo[1,5-a]quinoxalin-8-yl)phenyl)-N,N-dimethylpiperidin-4-amine] were, in that order, 8.1 nM, 0.2 nM and 6.5 nM.
As to `Cc1nc(N2C[C@@H](C)O[C@@H](C)C2)n2c1cnc1ccc(-c3ccc(OCCCN(C)C)nc3)cc12` [Example 15, N,N-dimethyl-3-((5-(1-((2S,6R)-2,6-dimethylmorpholino)-3-methylimidazo[1,5-a]quinoxalin-8-yl)pyridin-2-yl)oxy)propan-1-amine], the IC50 in assay [1] (Homo sapiens, SW-620, 120 h) turned out to be 9.3 nM; at ATM kinase, 0.31 nM; in assay [2], 7.98 nM.
On to `Cc1nc(C(C)C)n2c1cnc1ccc(-c3ccc(OCCCN(C)C)c(C(F)(F)F)c3)cc12` [Example 21, N,N-dimethyl-3-(4-(1-isopropyl-3-methylimidazo[1,5-a]quinoxalin-8-yl)-2-(trifluoromethyl)phenoxy)propan-1-amine], for which the values for the IC50 in assay [1] and in assay [2] were 29.6 nM and 16.4 nM, respectively. Besides, on ATM kinase, the inhibition at 0.001 µM came out at 67%.
The corresponding values for `Cc1nc(C(C)C)n2c1cnc1ccc(-c3ccc(OCCCN(C)C)nc3)cc12` [Example 19, N,N-dimethyl-3-((5-(1-isopropyl-3-methylimidazo[1,5-a]quinoxalin-8-yl)pyridin-2-yl)oxy)propan-1-amine] are 17.6 nM, 11.4 nM and 88%.
For the compound `Cc1nc(C2CCOCC2)n2c1cnc1ccc(-c3ccc(N4CCC(N(C)C)CC4)c(Cl)c3)cc12` [Example 7, N,N-dimethyl-1-(2-chloro-4-(3-methyl-1-(tetrahydro-2H-pyran-4-yl)imidazo[1,5-a]quinoxalin-8-yl)phenyl)piperidin-4-amine], in assay [1], the IC50 worked out at 25.9 nM. In addition, at ATM kinase, the inhibition at 0.0001 µM is 18%, the inhibition at 0.001 µM is 86% and the inhibition at 0.01 µM was 96%. Moreover, in assay [2], the IC50 came to 22.6 nM.
`Cc1nc(N2C[C@@H](C)O[C@@H](C)C2)n2c1cnc1ccc(-c3ccc(N4CCC(N(C)C)CC4)nc3)cc12` [Example 38, 1-(5-(1-((2S,6R)-2,6-dimethylmorpholino)-3-methylimidazo[1,5-a]quinoxalin-8-yl)pyridin-2-yl)-N,N-dimethylpiperidin-4-amine]: the IC50 in assay [1] (Homo sapiens, SW-620, 120 h) worked out at 8.7 nM; on ATM kinase, 0.2 nM; in assay [2] it was 6.9 nM.
As to `Cc1nc(N2C[C@@H](C)O[C@@H](C)C2)n2c1cnc1ccc(-c3ccc(N4CCC(N(C)C)CC4)c(F)c3)cc12` [Example 39, 1-(4-(1-((2S,6R)-2,6-dimethylmorpholino)-3-methylimidazo[1,5-a]quinoxalin-8-yl)-2-fluorophenyl)-N,N-dimethylpiperidin-4-amine], the IC50 in assay [1] (Homo sapiens, SW-620, 120 h) is 7.3 nM; on ATM kinase, 0.2 nM; in assay [2], 7.4 nM.
On to `Cc1nc(C(C)C)n2c1cnc1ccc(-c3ccc(N4CCC(N(C)C)CC4)c(Cl)c3)cc12` [Example 25, N,N-dimethyl-1-(2-chloro-4-(1-isopropyl-3-methylimidazo[1,5-a]quinoxalin-8-yl)phenyl)piperidin-4-amine], for which the IC50 was 66.6 nM in assay [1] and 73.3 nM in assay [2]. Moreover, the inhibition at 0.001 µM at ATM kinase was 69%.
On to `CCNC1CCN(c2ccc(-c3ccc4ncc5c(C)nc(N6C[C@@H](C)O[C@@H](C)C6)n5c4c3)cn2)CC1` [Example 50, 1-(5-(1-((2S,6R)-2,6-dimethylmorpholino)-3-methylimidazo[1,5-a]quinoxalin-8-yl)pyridin-2-yl)-N-ethylpiperidin-4-amine], for which the IC50 in assay [1] (Homo sapiens, SW-620, 120 h) was 6.3 nM; at ATM kinase it was 0.41 nM; in assay [2], 8.1 nM.
With `Cc1nc(N2CCCCC2)n2c1cnc1ccc(-c3ccc(OCCCN(C)C)nc3)cc12` [Example 16, N,N-dimethyl-3-((5-(3-methyl-1-(piperidin-1-yl)imidazo[1,5-a]quinoxalin-8-yl)pyridin-2-yl)oxy)propan-1-amine], the IC50 in assay [1] is 8.2 nM. In addition, at ATM kinase, the inhibition at 0.0001 µM was found to be 71%, the inhibition at 0.001 µM turned out to be 89% and the inhibition at 0.01 µM came out at 97%. The IC50 in assay [2] came out at 10.6 nM.
The corresponding values for `Cc1nc(N2C[C@@H](C)N(C)[C@@H](C)C2)n2c1cnc1ccc(-c3ccc(OCCCN(C)C)nc3)cc12` [Example 18, N,N-dimethyl-3-((5-(3-methyl-1-((3S,5R)-3,4,5-trimethylpiperazin-1-yl)imidazo[1,5-a]quinoxalin-8-yl)pyridin-2-yl)oxy)propan-1-amine] are 6.5 nM, 30%, 87%, 98% and 6.4 nM.
The like results for `Cc1nc(C(C)C)n2c1cnc1ccc(-c3ccc(OCCCN4CCCCC4)nc3)cc12` [Example 22, 1-isopropyl-3-methyl-8-(6-(3-(piperidin-1-yl)propoxy)pyridin-3yl)imidazo[1,5-a]quinoxaline] were, in that order, 16.3 nM, 31%, 94%, 100% and 9.91 nM.
Take `Cc1nc(C2CCOCC2)n2c1cnc1ccc(-c3ccc(OCCCN(C)C)cc3)cc12` [Example 3, N,N-dimethyl-3-(4-(3-methyl-1-(tetrahydro-2H-pyran-4-yl)imidazo[1,5-a]quinoxalin-8-yl)phenoxy)propan-1-amine]: the IC50 in assay [1] turned out to be 40.2 nM; in assay [2] it was 29.1 nM. The inhibition at 0.01 µM at ATM kinase came out at 98%.
